Experimental data from patent publication US12661356B2, “L718 and/or L792 mutant treatment-resistant EGFR inhibitor” (TAIHO PHARMACEUTICAL CO., LTD., priority 2018, dated 2026).

What was measured:
Assay in all cases: Intracellular EGFR phosphorylation, mutant EGFR forced expression system using HEK293 cells
Type in all cases: cell-based
Settings in all cases: 6 hours incubation, p-EGFR (Tyr1068)/EGFR
[1] = biological target: T1, human EGFR Ex19del+T790M+L718Q (Homo sapiens, UniProt P00533, DEL746-750/L718Q/T790M)
T1 construct: expressed in transfected cells; host or cells: Jump-In Grip HEK293 cells (Thermo Fisher Scientific)
T1 sequence (P00533 with tags, fused parts or gaps L718Q/DEL746-750/T790M): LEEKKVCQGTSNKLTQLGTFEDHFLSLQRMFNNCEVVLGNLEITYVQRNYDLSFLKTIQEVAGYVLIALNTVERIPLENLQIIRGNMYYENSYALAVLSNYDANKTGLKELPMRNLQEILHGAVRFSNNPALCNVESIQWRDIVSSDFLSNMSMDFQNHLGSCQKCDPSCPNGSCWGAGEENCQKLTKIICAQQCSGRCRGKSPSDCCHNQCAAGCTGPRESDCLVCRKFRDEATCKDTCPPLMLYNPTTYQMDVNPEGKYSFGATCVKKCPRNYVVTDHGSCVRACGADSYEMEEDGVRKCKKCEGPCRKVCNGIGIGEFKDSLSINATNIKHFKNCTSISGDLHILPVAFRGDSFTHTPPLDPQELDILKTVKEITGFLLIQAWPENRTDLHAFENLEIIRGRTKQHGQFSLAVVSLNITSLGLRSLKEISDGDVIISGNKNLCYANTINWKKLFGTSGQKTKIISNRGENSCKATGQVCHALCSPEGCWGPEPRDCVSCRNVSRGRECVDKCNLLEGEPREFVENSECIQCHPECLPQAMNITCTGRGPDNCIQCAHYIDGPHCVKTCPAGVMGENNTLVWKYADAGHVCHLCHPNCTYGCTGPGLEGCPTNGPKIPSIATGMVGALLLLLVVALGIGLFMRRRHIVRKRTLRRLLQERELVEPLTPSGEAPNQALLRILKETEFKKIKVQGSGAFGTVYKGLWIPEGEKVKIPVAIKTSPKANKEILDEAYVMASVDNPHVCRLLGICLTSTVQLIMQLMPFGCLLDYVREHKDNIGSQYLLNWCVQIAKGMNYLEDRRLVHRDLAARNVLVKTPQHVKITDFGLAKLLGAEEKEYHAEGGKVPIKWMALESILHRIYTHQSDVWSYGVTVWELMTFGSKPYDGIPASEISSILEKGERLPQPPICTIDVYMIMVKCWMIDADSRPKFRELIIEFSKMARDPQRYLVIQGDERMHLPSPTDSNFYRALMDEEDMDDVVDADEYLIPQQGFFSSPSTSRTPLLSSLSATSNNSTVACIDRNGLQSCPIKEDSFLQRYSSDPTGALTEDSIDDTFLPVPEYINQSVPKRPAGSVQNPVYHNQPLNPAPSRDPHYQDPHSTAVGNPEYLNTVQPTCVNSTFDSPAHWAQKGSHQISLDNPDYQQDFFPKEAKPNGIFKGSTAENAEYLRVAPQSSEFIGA

[2] = biological target: T2, human EGFR Ex19del (Del E746-A750) (Homo sapiens, UniProt P00533, DEL746-750)
T2 construct: expressed in transfected cells; host or cells: Jump-In Grip HEK293 cells (Thermo Fisher Scientific)
T2 sequence (P00533 with tags, fused parts or gaps DEL746-750): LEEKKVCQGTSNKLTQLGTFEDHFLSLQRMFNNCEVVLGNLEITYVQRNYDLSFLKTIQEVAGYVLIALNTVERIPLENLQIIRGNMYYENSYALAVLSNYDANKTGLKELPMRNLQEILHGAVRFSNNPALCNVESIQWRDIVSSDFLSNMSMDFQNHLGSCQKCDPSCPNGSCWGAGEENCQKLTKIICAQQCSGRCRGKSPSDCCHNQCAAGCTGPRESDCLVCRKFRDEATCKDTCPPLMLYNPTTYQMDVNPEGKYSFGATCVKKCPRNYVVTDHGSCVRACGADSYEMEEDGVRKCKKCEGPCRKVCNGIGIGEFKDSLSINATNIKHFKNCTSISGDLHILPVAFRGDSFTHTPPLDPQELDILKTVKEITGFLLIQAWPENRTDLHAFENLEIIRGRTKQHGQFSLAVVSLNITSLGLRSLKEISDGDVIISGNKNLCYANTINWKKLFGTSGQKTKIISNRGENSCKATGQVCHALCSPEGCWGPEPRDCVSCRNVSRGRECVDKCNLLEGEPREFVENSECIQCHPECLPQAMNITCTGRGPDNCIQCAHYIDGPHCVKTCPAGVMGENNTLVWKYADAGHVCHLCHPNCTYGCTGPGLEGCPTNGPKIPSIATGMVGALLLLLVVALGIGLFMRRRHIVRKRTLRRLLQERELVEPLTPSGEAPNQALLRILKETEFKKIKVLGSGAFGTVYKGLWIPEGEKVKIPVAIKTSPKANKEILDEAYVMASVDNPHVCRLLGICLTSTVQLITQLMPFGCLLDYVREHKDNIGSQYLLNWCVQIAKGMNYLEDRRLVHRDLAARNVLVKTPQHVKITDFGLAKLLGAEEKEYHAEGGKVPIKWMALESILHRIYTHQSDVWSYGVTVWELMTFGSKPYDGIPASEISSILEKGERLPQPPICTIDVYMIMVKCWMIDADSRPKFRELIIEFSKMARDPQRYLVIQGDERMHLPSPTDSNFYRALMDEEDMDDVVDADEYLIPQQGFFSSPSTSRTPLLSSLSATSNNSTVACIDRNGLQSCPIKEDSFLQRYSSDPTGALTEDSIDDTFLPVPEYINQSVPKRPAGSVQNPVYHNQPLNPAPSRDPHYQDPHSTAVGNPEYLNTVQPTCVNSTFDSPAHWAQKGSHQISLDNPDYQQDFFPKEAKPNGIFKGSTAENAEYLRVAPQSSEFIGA

[3] = biological target: T3, human EGFR L858R+T790M+L792H (Homo sapiens, UniProt P00533, L792H/L858R/T790M)
T3 construct: expressed in transfected cells; host or cells: Jump-In Grip HEK293 cells (Thermo Fisher Scientific)

[4] = biological target: T4, human EGFR L858R+T790M+L792Y (Homo sapiens, UniProt P00533, L792Y/L858R/T790M)
T4 construct: expressed in transfected cells; host or cells: Jump-In Grip HEK293 cells (Thermo Fisher Scientific)

[5] = biological target: T5, human EGFR Ex19del+T790M+L792F (Homo sapiens, UniProt P00533, DEL746-750/L792F/T790M)
T5 construct: expressed in transfected cells; host or cells: Jump-In Grip HEK293 cells (Thermo Fisher Scientific)

[6] = biological target: T6, human EGFR L858R+T790M (Homo sapiens, UniProt P00533, L858R/T790M)
T6 construct: expressed in transfected cells; host or cells: Jump-In Grip HEK293 cells (Thermo Fisher Scientific)

[7] = biological target: T7, human EGFR L858R+T790M+L792F (Homo sapiens, UniProt P00533, L792F/L858R/T790M)
T7 construct: expressed in transfected cells; host or cells: Jump-In Grip HEK293 cells (Thermo Fisher Scientific)

[8] = biological target: T8, human EGFR L858R (Homo sapiens, UniProt P00533, L858R)
T8 construct: expressed in transfected cells; host or cells: Jump-In Grip HEK293 cells (Thermo Fisher Scientific)

[9] = biological target: T9, human EGFR L858R+T790M+L718Q (Homo sapiens, UniProt P00533, L718Q/L858R/T790M)
T9 construct: expressed in transfected cells; host or cells: Jump-In Grip HEK293 cells (Thermo Fisher Scientific)
T9 sequence (P00533 25-1210 L718Q/T790M/L858R): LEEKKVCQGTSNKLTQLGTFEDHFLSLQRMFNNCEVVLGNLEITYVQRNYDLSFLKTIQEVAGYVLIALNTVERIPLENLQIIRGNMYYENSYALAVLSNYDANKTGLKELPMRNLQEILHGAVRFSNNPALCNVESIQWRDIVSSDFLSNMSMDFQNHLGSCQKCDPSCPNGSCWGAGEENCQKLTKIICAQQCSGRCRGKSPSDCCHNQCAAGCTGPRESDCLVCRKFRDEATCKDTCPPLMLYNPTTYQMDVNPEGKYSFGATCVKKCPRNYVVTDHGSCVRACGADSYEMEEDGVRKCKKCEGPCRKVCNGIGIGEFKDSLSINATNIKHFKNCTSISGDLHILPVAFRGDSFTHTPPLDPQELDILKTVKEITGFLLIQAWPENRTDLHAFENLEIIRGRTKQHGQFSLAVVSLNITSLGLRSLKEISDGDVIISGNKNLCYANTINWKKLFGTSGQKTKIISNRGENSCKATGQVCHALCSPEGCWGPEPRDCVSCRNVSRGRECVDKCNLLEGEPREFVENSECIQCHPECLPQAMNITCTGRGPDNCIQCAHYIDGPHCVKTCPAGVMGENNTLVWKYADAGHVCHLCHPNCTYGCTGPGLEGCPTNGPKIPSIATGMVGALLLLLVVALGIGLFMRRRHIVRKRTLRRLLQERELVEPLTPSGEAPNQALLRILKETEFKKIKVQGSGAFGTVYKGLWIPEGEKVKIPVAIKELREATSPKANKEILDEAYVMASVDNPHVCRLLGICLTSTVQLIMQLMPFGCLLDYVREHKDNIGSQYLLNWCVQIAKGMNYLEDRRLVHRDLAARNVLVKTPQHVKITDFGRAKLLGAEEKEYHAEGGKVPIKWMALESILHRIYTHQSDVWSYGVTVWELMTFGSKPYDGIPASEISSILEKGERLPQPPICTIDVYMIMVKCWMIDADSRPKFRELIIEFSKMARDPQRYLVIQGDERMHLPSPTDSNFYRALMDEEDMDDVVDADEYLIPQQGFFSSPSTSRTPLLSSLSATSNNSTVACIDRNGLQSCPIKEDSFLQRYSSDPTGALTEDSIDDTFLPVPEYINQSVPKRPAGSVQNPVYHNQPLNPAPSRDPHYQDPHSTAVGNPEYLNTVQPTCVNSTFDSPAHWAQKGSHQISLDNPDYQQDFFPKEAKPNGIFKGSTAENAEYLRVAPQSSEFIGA

[10] = biological target: T10, human EGFR Ex19del+T790M (Homo sapiens, UniProt P00533, DEL746-750/T790M)
T10 construct: expressed in transfected cells; host or cells: Jump-In Grip HEK293 cells (Thermo Fisher Scientific)

[11] = biological target: T11, human EGFR Ex19del+T790M+L792H (Homo sapiens, UniProt P00533, DEL746-750/L792H/T790M)
T11 construct: expressed in transfected cells; host or cells: Jump-In Grip HEK293 cells (Thermo Fisher Scientific)

[12] = biological target: T12, human EGFR Ex19del+T790M+L792Y (Homo sapiens, UniProt P00533, DEL746-750/L792Y/T790M)
T12 construct: expressed in transfected cells; host or cells: Jump-In Grip HEK293 cells (Thermo Fisher Scientific)
T12 sequence (P00533 with tags, fused parts or gaps DEL746-750/T790M/L792Y): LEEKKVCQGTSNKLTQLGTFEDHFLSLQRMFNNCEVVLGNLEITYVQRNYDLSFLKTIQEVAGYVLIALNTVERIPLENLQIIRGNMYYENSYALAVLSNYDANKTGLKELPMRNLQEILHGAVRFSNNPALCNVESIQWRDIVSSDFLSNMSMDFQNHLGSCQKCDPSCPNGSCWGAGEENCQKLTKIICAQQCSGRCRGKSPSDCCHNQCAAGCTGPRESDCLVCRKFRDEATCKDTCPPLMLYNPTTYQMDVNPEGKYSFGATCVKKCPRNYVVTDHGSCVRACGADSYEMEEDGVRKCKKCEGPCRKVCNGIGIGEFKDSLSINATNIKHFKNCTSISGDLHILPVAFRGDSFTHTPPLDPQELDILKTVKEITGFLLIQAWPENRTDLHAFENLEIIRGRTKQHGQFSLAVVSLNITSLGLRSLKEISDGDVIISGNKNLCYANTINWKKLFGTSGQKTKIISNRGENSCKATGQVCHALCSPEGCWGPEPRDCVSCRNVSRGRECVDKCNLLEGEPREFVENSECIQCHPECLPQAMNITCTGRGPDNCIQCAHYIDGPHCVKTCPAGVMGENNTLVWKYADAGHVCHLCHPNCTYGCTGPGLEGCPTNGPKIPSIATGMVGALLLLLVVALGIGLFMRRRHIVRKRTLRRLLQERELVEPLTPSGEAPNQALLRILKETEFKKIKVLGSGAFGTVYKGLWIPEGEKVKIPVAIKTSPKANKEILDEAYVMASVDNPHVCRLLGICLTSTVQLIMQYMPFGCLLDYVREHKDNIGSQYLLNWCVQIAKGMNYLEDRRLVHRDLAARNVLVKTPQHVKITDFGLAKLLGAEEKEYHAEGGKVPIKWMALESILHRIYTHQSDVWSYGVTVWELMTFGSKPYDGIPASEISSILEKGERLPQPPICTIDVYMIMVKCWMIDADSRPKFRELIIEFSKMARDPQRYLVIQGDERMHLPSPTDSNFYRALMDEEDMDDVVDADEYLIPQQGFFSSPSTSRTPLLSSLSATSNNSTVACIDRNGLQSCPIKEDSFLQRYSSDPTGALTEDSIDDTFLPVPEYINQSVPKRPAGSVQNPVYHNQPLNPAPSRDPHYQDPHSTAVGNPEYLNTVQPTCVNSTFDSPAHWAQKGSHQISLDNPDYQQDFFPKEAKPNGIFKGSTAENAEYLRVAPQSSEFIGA

- IC50 [1]: 82.5 ± 9 µM
- IC50 [2]: 11.2 ± 6.4 µM
- IC50 [3]: 15.3 ± 5 µM
- IC50 [4]: 11.3 ± 5.8 µM
- IC50 [5]: 6.25 ± 1.83 µM
- IC50 [6]: 16 ± 2.6 µM
- IC50 [7]: 9.07 ± 4.74 µM
- IC50 [8]: 13.8 ± 3.8 µM
- IC50 [9]: 104 ± 40 µM
- IC50 [10]: 16.9 ± 5.9 µM
- IC50 [11]: 11.1 ± 5.6 µM
- IC50 [12]: 6.54 ± 1.49 µM
Structure (SMILES): C=CC(=O)N[C@H]1C=C(C)c2c(-c3cnc4ccccc4c3)c3c(N)ncnc3n2C1 [Compound A, (S)—N-(4-amino-6-methyl-5-(quinolin-3-yl)-8,9-dihydropyrimido[5,4-b]indolizin-8-yl) acrylamide]
